Experiments:
neutrophils = assay: Neutrophil function (experiments 1 to 3); type: cell-based, sheep and cattle; conditions: any experiment
Procedure: A study was conducted to determine if KIC administration can alter white blood cell function, specifically T lymphocyte function, in growing sheep and cattle. Eighteen medium-framed crossbred male lambs were used in experiment 1. Lambs were randomly assigned to either a control diet (n=10) or a diet supplemented with 1% KIC (n=8). Animals were fed ad libitum in individual cages. At 100 and 108 days of treatment, 50-ml blood samples were collected for lymphocyte and neutrophil function tests. In experiment 2, 19 intact crossbred male lambs were randomly assigned to either a saline treatment group (n=9) or a KIC treatment group (n=10). Control lambs were injected with 50 ml of a saline solution, and KIC treated lambs were injected with 50 ml of a 5% solution of KIC (sodium salt) daily (~2.5 g KIC/day). All injections were made intraperitoneally in the right posterior abdominal region after disinfection of the area. […] At the end of the 6-233k periods, 100-ml blood samples were collected from each animal, and lymphocyte and neutrophil function were evaluated. […] Lymphocytes and neutrophils were isolated, and lymphocyte blastogenesis and neutrophil function evaluated. […] Each experiment was statistically analyzed by analysis of variance. In sheep experiments, individual animals were the experimental units, whereas pen means were analyzed in the cattle experiment.

[1] = set-up: species or system pigs; conditions: pig, in vivo
Text: In experiment 1, sixteen female pigs weighing 20-30 kg were used. Seven days before study, catheters were surgically placed in the right atria for blood sampling. Animals were housed in individual cages during the recovery period and had free access to water. Preceding the experiment, animals were fed twice daily a basal diet (2% of body weight per feeding). The basal diet consisted of a corn-soybean mix, adequate in all minerals and vitamins and containing approximately 14% crude protein. Test meals were formulated by additions to a basal diet. Five animals received the basal diet (control); five animals received the leucine meal, which had 2% leucine added to the basal diet; and six animals received the KIC diet, which had 2% KIC (sodium salt equivalent to 1.7% free acid) added to the basel diet. Studies were begun between 0800 and 0900 h after a 24-hr fast. Basal blood samples were taken at -20, -10 and -5 min. Animals were then offered 100 g of their respective test meal (time 0). Pigs were included in the study only if they consumed the entire meal in the first 20 min. Blood was sampled every 30 min from 120 to 240 min. Plasma was separated, Trasylol (FBA Pharmaceuticals, New York, NY) added (50 ul/ml), and plasma stored at -70 C. until analyzed.
Cortisol was measured by coated tube kits (Gammacoat, Travenol-Genetech Diagnostics, Cambridge, MA). Leucine and KIC were measured by high pressure liquid chromatography. Crystalline leucine was obtained from Sigma Chemical (St. Louis, MO) and KIC-sodium was obtained from SOBAC (Paris, France). Statistical analysis of the individual pig responses was conducted on mean plasma concentrations before the meal (-20 to 0 min) and after the meal (120 to 240 min). When the overall treatment F-value was significant, differences between individual treatments were determined using the pooled SEM and a T-test.

[2] = Feedlot steers: performance and carcass; type: in vivo, steers (cattle)
Text: Seventy-two medium-frame steers, with an average weight of 578 lbs., were allotted to 12 pens of 6 animals each. A common basal diet was fed ad libitum to all cattle. This consisted of 48.9% cracked corn, 24.4% ground corn cobs, 17.8% expeller Soybean meal, 7.0% molasses (liquid), 1.3% limestone, 0.25% dicalcium phosphate, 2% salt, 0.02% trace mineral premix, and 0.1% vitamin A premix for the first 58 days of the experiment, and was changed to 54.3% cracked corn and 12.8% expeller soybean meal for the remaining 103 days of the experiment. Three pens were assigned to each treatment. The treatments consisted of four levels of Ca-KIC in a pelleted supplement: 0%, 0.02%, 0.07%, and 0.20% of the basal diet (0.05% control pellets, 0.04% KIC pellets, 0.14% KIC pellets, and 0.40% KIC pellets). The pellets were preweighted and top-dressed on the basal diet twice daily. After 58 days, the cattle on the 0.20% KIC were removed from the experiment. The cattle were not implanted with a growth promotant nor were ionophores included in the diet. The cattle were placed in the feedlot and fed a growing ration for 5 weeks prior to the start of the experiment. The cattle were weighed on 2 consecutive days at the beginning and end of the experiment, and every 14 days during the trial. The cattle were sold through a commercial beef processing plant when they were approaised by visual examination to grade Choice. Loin eye area and fat thickness over the loin were measured on each carcass. Quality and yield grades, and percent kidney, heart, and lepvic (KHP) fat were estimated by the federal graders.
Therefore, an attempt was made to protect KIC from ruminal degradation. KIC pellets, resistant to rumen degradation, were made by mixing zein, ethanol, KIC, limestone, bentonite and water in a ratio of 8.3:7.4:5.2:3:2:1. This mixture was extruded through a die of 15 mm directly into a vat of liquid nitrogen. The shattered pellets were spread out and allowed to air-dry for two days. The dried pellets were coated with zein (2% w/w) by spraying with a 30% zein solution made in 80% ethanol. The pellets again were air-dried. Control pellets were made similar to the KIC pellets except that the mixture was zein, limestone, ethanol, bentonite and water in a ratio of 12:12:7.5:2.7:1. When KIC pellets were placed in the rumen (nylon bag technique), 45% of the KIC added was present in the bags after 36 hr of rumen digestion.
KIC was obtained from SOBAC, Paris, France. Zein was purchased from Freeman Industries, Tuckahoe, N.Y. Each experiment was statistically analyzed by analysis of variance with three pens per treatment.

With `CC(C)CC(=O)C(=O)O` [KIC, alpha-ketoisocaproate] the antibody-dependent cell-mediated cytotoxicity (neutrophils) was “did not alter”, the “Plasma KIC, Change” value [1] was 56 µM and the “Plasma leucine, Change” value [1] was 182 µM. The plasma leucine concentration [1] was “doubling”, the “Plasma KIC, Post” value ([1]; 240 min) was 102 µM and the “Plasma leucine, Post” value ([1]; 240 min) was 312 µM. It also gave a Feed conversion improvement ([2]; 161-day trial, 0.02% KIC, NS) of 8%, a daily gain increase ([2]; 161-day trial, 0.02% KIC, p<0.01) of 14% and a daily gain increase ([2]; 161-day trial, 0.07% KIC, (NX)) of 7%. The Feed conversion improvement ([2]; 161-day trial, 0.07% KIC, NS) was 6%, the Daily gain ([2]; 58 days, 0.07% dietary KIC (0%: 2.80)) was 3.12 lb and the Feed/Gain ([2]; 58 days, 0.07% dietary KIC (0%: 5.7)) was 5.2. It also gave a Daily intake ([2]; 58 days, 0.07% dietary KIC (0%: 16.0)) of 16.3 lb DM/day, an Ending wt. ([2]; 58 days, 0.07% dietary KIC (0%: 756)) of 770 lb and a Daily gain ([2]; 58 days, 0.20% dietary KIC (0%: 2.80)) of 3.19 lb. It also gave a Feed/Gain ([2]; 58 days, 0.20% dietary KIC (0%: 5.7)) of 5.2, a Daily intake ([2]; 58 days, 0.20% dietary KIC (0%: 16.0)) of 16.3 lb DM/day and an Ending wt. ([2]; 58 days, 0.20% dietary KIC (0%: 756)) of 779 lb. For the same compound, the Daily gain ([2]; 58 days, % dietary KIC printed 0.2 (0%: 2.80), * p<.1) was 3.36 lb, the Feed/Gain ([2]; 58 days, % dietary KIC printed 0.2 (0%: 5.7), ** p<.05) was 5.0 and the Daily intake ([2]; 58 days, % dietary KIC printed 0.2 (0%: 16.0)) was 16.8 lb DM/day. It also gave an Ending wt. ([2]; 58 days, % dietary KIC printed 0.2 (0%: 756)) of 786 lb, a Daily gain ([2]; 161 days, 0.02% dietary KIC (0%: 2.66), *** p<.01) of 3.03 lb and a Feed/Gain ([2]; 161 days, 0.02% dietary KIC (0%: 8.0)) of 7.4. For the same compound, the Daily intake ([2]; 161 days, 0.02% dietary KIC (0%: 21.2)) was 22.6 lb DM/day, the Ending wt. ([2]; 161 days, 0.02% dietary KIC (0%: 1016)) was 1068 lb and the Daily gain ([2]; 161 days, 0.07% dietary KIC (0%: 2.66)) was 2.85 lb. The Feed/Gain ([2]; 161 days, 0.07% dietary KIC (0%: 8.0)) was 7.5, the Daily intake ([2]; 161 days, 0.07% dietary KIC (0%: 21.2)) was 21.6 lb DM/day and the Ending wt. ([2]; 161 days, 0.07% dietary KIC (0%: 1016)) was 1035 lb. The Feed conversion improvement ([2]; first 58 days, 0.02% KIC, p<0.05) was 13%, the daily gain increase ([2]; first 58 days, 0.02% KIC, p<0.07) was 20% and the daily gain increase ([2]; first 58 days, 0.07% KIC, NS) was 11%. The Feed conversion improvement ([2]; first 58 days, 0.07% KIC, p<0.17) was 9%, the Feed conversion improvement ([2]; first 58 days, 0.20% KIC, p<0.11) was 10% and the daily gain increase ([2]; first 58 days, 0.20% KIC, p<0.18) was 14%. For the same compound, the Feed conversion improvement ([2]; long-term trial, summary) was “up to 8%” and the daily gain increase ([2]; long-term trial, summary) was “up to 14%”.
